Measurements as given in ChEMBL document CHEMBL2151027, “BACE Inhibitors: Potential Treatment of Alzheimer's Disease, Dementia, and Related Neurodegenerative Disorders (B): 3-Amino-4-fluoro-1H-isoindol Derivatives: Patent Highlight” (ACS Med Chem Lett, 2012).
pIC50: −log10 of the molar value.

Assays:
Beta-secretase 1 [1] = target: T1, Beta-secretase 1 (Homo sapiens, UniProt P56817); assay: Inhibition of BACE1 by secreted AAPbeta release assay
Beta-secretase 1 [2] = target: T1, Beta-secretase 1; assay: Inhibition of BACE1 by diluted TR-FRET assay

T1 sequence (P56817 whole entry): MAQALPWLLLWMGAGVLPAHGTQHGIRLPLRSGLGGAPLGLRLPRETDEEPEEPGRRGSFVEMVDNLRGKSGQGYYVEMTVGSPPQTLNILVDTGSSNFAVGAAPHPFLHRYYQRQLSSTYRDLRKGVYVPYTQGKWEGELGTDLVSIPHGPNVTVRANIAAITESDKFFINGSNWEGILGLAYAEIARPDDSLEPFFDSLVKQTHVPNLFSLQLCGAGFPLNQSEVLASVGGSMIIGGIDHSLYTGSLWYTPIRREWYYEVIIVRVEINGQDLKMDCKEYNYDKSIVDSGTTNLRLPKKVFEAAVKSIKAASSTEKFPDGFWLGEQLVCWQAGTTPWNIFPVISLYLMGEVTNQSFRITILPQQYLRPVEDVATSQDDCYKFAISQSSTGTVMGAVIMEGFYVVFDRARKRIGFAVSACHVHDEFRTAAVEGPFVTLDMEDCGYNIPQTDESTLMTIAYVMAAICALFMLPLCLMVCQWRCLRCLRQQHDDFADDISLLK

Compound CC#Cc1ccnc(-c2cccc([C@@]3(c4cc(C)c(=O)n(CC)c4)N=C(N)c4c(F)cccc43)c2)c1 has a pIC50 (Beta-secretase 1 [1]) of 8.70.

In the case of CC#Cc1cncc(-c2cccc([C@@]3(c4cc(C(F)F)c(=O)n(CC)c4)N=C(N)c4c(F)cccc43)c2)c1, the pIC50 (Beta-secretase 1 [1]) was 8.40 and the pIC50 (Beta-secretase 1 [2]) was 8.22.

For CCn1cc([C@]2(c3cccc(-c4cncc(C#N)c4)c3)N=C(N)c3c(F)cccc32)cc(C)c1=O, the pIC50 (Beta-secretase 1 [1]) was 8.70 and the pIC50 (Beta-secretase 1 [2]) was 8.10.
